Source: patent US20240041764A1, “Sustained-Release Oral Fosamprenavir Formulation for Treatment of Reflux” (The Medical College of Wisconsin, Inc., priority 2022, published 2024)
“Also recorded” adds a separate entry of the source.

Legend:
[1] = molecular target: T1, porcine pepsin (Sus scrofa, UniProt P00791); assay: peptic activity assay, fluorescence polarization with casein-Alexa647; type: biochemical; settings: for IC50 for pepsin: in vitro binding and inhibition assays, IC50 from kinetic traces
T1 construct: purchased Worthington Biochemical Corporation
Procedure: To examine whether HIV protease inhibitors bound and inhibited pepsin, we developed assays based on fluorescence polarization which measures size-dependent molecular rotation thereby permitting detection of degradation, association and dissociation events^80. A competitive binding assay was designed employing pepstatin, an inhibitor of sub-nanomolar affinity^81. Pepstatin-Alexa647 was synthesized by dissolving 1 mg pepstatin A (Sigma-Aldrich) in a 50:50 mixture of dimethylformamide (DMF) and dimethylsulfoxide (DMS) followed by the addition of N,N,N′,N′-Tetramethyl-O—(N-succinimidyl)uronium tetrafluoroborate (0.6 mg) and trimethylamine (10 μL) DMF. The mixture was stirred for 1 hour, after which 1 mg Alexa Fluor 647 Cadaverine, Disodium Salt (ThermoFisher Scientific) was added. After 2 hours, the solvents were evaporated under high vacuum (35° C.) and residue partially dissolved in 10% methanol and transferred onto a C18 cartridge (Waters Corporation, Milford, MA). Increasing percentages of methanol were used for the elution. […] An enzymatic inhibition assay was designed using casein substrate.^82 Bovine alpha casein (Sigma-Aldrich, St. Louis, MO) was labeled with Alexa Fluor 647 Carboxylic Acid, Succinimidyl Ester (ThermoFisher Scientific, Waltham, MA) as described.^82 Briefly, the two were combined at 2.5 ug/mg label to protein ratio in 0.1M sodium bicarbonate for 15 minutes and labeled casein was separated from unbound label in a Sephadex G-25 (Sigma-Aldrich) column comprised of 90×5 mm packed beads in a glass Pasteur pipette, eluted with dPBS pH7.4 (ThermoFisher Scientific). The fast-moving band (casein-bound fluorophore) was collected in ˜0.4 ml volume. Concentration of resultant probe (casein-Alexa647 in PBS-azide) was estimated via spectrophotometry using Beer's law (Implen Nanophotometer, Implen, Inc. Westlake Village, CA).
Assays were optimized using ranges of 0.3-1000 μM unlabeled pepstatin, 100-500 nM pepstatin-Alexa647 or casein-Alexa647 probe, 0.003-3 U/μl porcine pepsin (Worthington Biochemical Corporation, Lakewood, NJ), and 5-37.5% DMSO (HIV protease inhibitor diluent) in 0.1 M HCl, pH 1 with 0.01% v/v Tween-20 in 20 μl volumes in 384-well black optical plates (Nunc, Roskilde, DK) and read on a BioTek Cytation 5 (BioTek Instruments, Winooski, VT) with far red FP filter cube (excitation/emission 620/680 nm). Unlabeled pepstatin dose-response curves were used to ensure that the assays were responsive to pepsin inhibition. […] Assays were performed twice with triplicate reactions read for five minutes and mean mP plotted against probe concentration (binding assay) or read at <2 minutes intervals over 30 minutes with mean mP of plotted over time (activity assay). Half maximal inhibitory concentration (IC50) of inhibitors were calculated from kinetic traces analyzed using an online tool (https://icekat.herokuapp.com/icekat)^83. mP was normalized to blank (absent inhibitor) to derive percent bound or activity.

[2] = system: LPR mouse model (pepsin-mediated laryngeal damage); assay: in vivo LPR mouse model: mechanical injury plus laryngeal pepsin instillation, H&E histology; settings: for protection against pepsin-mediated laryngeal damage (histology): 0.3 mg/ml pepsin pH7, 4 weeks
From the text: Three replicate animals per treatment condition were anticipated to suffice for verification of reproducibility in each experiment without excessive use of animal life. The three mice were randomly allocated to treatment groups. No data were excluded from analysis.
Six-week-old female Jackson A/J mice (Jackson Laboratory, Bar Harbor, ME) were fed D-62 powdered Wattenberg diet, 2 g/mouse/day^95 and allowed to acclimate for one week upon arrival prior to experiments. In accord with previously established methods for modeling aerodigestive tract damage attributed to GERD and LPR,^1,95-99 mechanical injury applied during the first two weeks of a four-week treatment course was used to predispose the laryngeal mucosa to chemical injury by pepsin/acid applied throughout the four weeks. […] Briefly, anesthetized mice were suspended by upper teeth on a slanted board under an operating microscope.
In a preliminary experiment to validate the LPR mouse model (i.e. laryngeal damage by pepsin at neutral and acidic pH), 20 μl saline (solvent control) or 0.3 mg/ml pepsin at pH7.0 or 4.0 were provided to mice (n=3) by laryngeal instillation at 24, 48, and 72 hours after mechanical injury during weeks 1 and 2 (FIG. 6); laryngeal instillation without wounding (3 days/week) continued during weeks 3 and 4. […] Mice were sacrificed at conclusion of the fourth week.
To test the protective effect of HIV protease inhibitors on pepsin-mediated damage in vivo, inhibitors were delivered by aerosol or gavage concurrently with wounding (days 2, 8) and solvent/pepsin instillation (days 3-5, 9-11, 16-18 and 23-25). Aerosol or gavage was provided on days 1-5, 8-12, 15-19, and 22-25, and mice sacrificed day 26. Mice were anesthetized with isoflurane (3% in 2.5LPM, 3-5 minutes prior to procedures) as opposed to Avertin due to frequency. […] Aerosol was generated as described^100. Briefly, a 10 ml suspension of drug in ethanol was placed in the baffle, such that the concentration would remain constant at the equilibrium solubility. Droplets of ethanol containing dissolved drug were generated by an ultrasonic atomizer (nominal frequency 1.7 MHz) and entrained by air at a flow rate of 0.5 LPM with a custom-built glass baffle (UMN Department of Chemistry Glass Shop). The aerosol cloud was then passed through a cylindrical drying column containing an annular ring of charcoal. The ethanol was removed and the emanating dry aerosol particles of pure drug were then directed into the exposure chamber. The mass deposited on filters was measured gravimetrically and total output rate (mg/min) was determined. The aerosol concentration (mass/volume of air) was calculated by dividing the total output rate by the air flow rate (0.5 LPM). The inhaled mass of drug (Minh) for each mouse was defined as Minh=[Aerosol]*RMV*t, where Aerosol is the aerosol concentration of drug, RMV is the respiratory minute volume of the mice (0.025 L/min), and t is the aerosol exposure time. […] Actual mass deposited was not determined but anticipated to be 10% of inhaled mass (the deposition fraction of […] aerosol particles in mice).
Tissues were collected, fixed in paraformaldehyde, embedded in paraffin and 4 um sections stained with hematoxylin and eosin (H&E) via automated stainer. Slides were reviewed by a board-certified pathologist (JM) blinded to treatment groups.

T1 sequence (P00791 60-385): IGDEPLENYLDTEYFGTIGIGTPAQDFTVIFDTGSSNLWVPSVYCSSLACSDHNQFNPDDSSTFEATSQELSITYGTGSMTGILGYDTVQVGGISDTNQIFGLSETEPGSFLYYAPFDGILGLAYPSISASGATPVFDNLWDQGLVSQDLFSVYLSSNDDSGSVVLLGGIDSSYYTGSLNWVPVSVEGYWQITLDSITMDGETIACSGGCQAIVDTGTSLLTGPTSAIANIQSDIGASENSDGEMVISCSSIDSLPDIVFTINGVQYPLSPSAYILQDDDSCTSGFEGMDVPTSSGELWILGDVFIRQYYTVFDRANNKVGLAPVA

CC(C)CN(C[C@@H](O)[C@H](Cc1ccccc1)NC(=O)O[C@H]1CO[C@H]2OCC[C@H]21)S(=O)(=O)c1ccc(N)cc1 [darunavir, [(3aS,4R,6aR)-2,3,3a,4,5,6a-hexahydrofuro[2,3-b]furan-4-yl]N-[(2S,3R)-4-[(4-aminophenyl)sulfonyl-(2-methylpropyl)amino]-3-hydroxy-1-phenylbutan-2-yl]carbamate]
inhibited pepsin (peptic activity) ([1]; 200 nM probe, 0.01 U/μL pepsin, 5% DMSO, 0.1 M HCl pH 1): low micromolar | IC50 for pepsin [1]: low micromolar range | IC50 for pepsin ([1]; listed as Darunavir): lowest IC50 | laryngeal histology, drug with saline (solvent), no pepsin ([2]; aerosol): absent | protection against pepsin-mediated laryngeal damage (histology) ([2]; aerosol, inhaled mass 0.93 mg/kg/day fosamprenavir, 12 mg/kg/day darunavir): moderate protection against pepsin-mediated damage; also recorded: mild protection against pepsin-mediated damage | laryngeal histology, drug with saline (solvent), no pepsin ([2]; gavage): Mild reactivity | protection against pepsin-mediated laryngeal damage (histology) ([2]; gavage, 20 mg/kg/day fosamprenavir (Lexiva), 8.6 mg/kg/day darunavir (Prezista)): obscured the ability to detect its effect on pepsin-mediated damage and not and appeared similar | laryngeal histology, drug with saline (solvent), no pepsin ([2]; gavage, listed as Darunavir): mild reactivity (rare intraepithelial lymphocytes)
